Measurements reported in patent publication US20220306617A1, “SUBSTITUTED 1,3-PHENYL HETEROARYL DERIVATIVES AND THEIR USE IN THE TREATMENT OF DISEASE” (NOVARTIS AG, priority 2019, published 2022).

Molecular target: T1, abc isoform of human TMEM16A channel expressed in CHO cells (Homo sapiens, UniProt Q5XXA6, DEL476-501)
T1 construct: expressed in transfected cells; host or cells: CHO cells, doxycycline-inducible expression under Blasticidin/Zeocin selection
T1 sequence (Q5XXA6 with tags, fused parts or gaps isoform Q5XXA6-5 DEL539-564): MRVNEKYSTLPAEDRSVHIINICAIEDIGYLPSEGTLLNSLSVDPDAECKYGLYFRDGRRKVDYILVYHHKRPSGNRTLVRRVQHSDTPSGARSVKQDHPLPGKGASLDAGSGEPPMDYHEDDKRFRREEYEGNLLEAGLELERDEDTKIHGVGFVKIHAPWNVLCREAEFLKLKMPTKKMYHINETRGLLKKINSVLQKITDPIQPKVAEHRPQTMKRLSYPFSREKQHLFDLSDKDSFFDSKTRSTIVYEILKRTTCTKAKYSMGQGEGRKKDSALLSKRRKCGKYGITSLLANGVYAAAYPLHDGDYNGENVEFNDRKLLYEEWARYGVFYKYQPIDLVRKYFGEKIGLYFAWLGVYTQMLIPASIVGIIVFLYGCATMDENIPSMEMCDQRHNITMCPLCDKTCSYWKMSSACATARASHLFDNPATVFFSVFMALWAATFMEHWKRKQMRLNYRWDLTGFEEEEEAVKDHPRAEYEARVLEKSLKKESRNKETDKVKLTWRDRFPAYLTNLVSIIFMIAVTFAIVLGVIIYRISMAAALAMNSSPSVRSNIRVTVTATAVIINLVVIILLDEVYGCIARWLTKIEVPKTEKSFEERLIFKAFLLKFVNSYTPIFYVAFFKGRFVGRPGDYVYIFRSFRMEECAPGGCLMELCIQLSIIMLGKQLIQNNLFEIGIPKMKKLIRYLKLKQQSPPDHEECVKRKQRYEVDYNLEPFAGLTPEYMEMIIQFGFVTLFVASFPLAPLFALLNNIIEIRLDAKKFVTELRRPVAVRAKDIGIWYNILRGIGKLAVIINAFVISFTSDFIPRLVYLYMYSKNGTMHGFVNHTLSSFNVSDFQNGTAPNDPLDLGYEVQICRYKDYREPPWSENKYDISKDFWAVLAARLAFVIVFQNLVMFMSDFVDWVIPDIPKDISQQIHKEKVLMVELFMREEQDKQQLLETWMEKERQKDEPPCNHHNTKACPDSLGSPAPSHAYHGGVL
Test: Automated patch clamping (QPatch) assay to measure TMEM16A activity in whole-cell
Type: cell-based
Details: for EC50: CHO cells expressing human TMEM16A (abc), whole-cell automated patch clamp, Hill fit, read-out: TMEM16A QPATCH assay EC50 V3 EC50; for Emax: CHO, maximum current at highest dose relative to reference potentiator at maximal concentration (upper limit) and vehicle (lower limit), read-out: TMEM16A QPATCH assay EC50 V3 Assay Window (% TMEM16A max activation)
Procedure, shortened: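 Whole-cell currents were recorded by planar automated patch clamp from induced CHO cells (doxycycline 1 μg/mL, 18-24 h), using a −70 mV hold, +70 mV step and −90 to +70 mV ramp. Values: Hill-fitted EC50, and activation scaled between vehicle current and reference-potentiator maximum; 0.3% DMSO final.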

SMILES	EC50 [µM]	Emax [%]
CCC(CC)NC(=O)c1cnc(-c2cccc(-c3nc(C(=O)NC(CC)CC)n(CCN4Cc5ccccc5C4)n3)c2)o1 [Example 15.7, 2-(3-(1-(2-(Isoindolin-2-Yl)Ethyl)-5-(Pentan-3-Ylcarbamoyl)-1H-1,2,4-Triazol-3-Yl)Phenyl)-N-(Pentan-3-Yl)Oxazole-5-Carboxamide]	0.32	103
CCOC(=O)CCCn1nc(-c2cccc(-c3ncc(C(=O)NC(CC)CC)o3)c2)nc1C(=O)NC(CC)CC [Example 15.8, Ethyl 4-(5-(Pentan-3-Ylcarbamoyl)-3-(3-(5-(Pentan-3-Ylcarbamoyl)Oxazol-2-Yl)Phenyl)-1H-1,2,4-Triazol-1-Yl)Butanoate]	0.09	95
CCC(CC)NC(=O)c1cnc(-c2cccc(-c3nc(C(=O)NC(CC)CC)n(CCOCCOCCOC)n3)c2)o1 [Example 15.9, 2-(3-(1-(2-(2-(2-Methoxyethoxy)Ethoxy)Ethyl)-5-(Pentan-3-Ylcarbamoyl)-1H-1,2,4-Triazol-3-Yl)Phenyl)-N-(Pentan-3-Yl)Oxazole-5-Carboxamide]	1	95
CCC(CC)NC(=O)c1cnc(-c2cccc(-c3nc(C(=O)NC(CC)CC)n(CC(=O)OC(C)(C)C)n3)c2)o1 [Example 15.10, Tert-Butyl 2-(5-(Pentan-3-Ylcarbamoyl)-3-(3-(5-(Pentan-3-Ylcarbamoyl)Oxazol-2-Yl)Phenyl)-1H-1,2,4-Triazol-1-Yl)Acetate]	0.08	73
CCOC(=O)CCCCCn1nc(-c2cccc(-c3ncc(C(=O)NC(CC)CC)o3)c2)nc1C(=O)NC(CC)CC [Example 15.11]	0.44	88
CCC(CC)NC(=O)c1cnc(-c2cccc(-c3nc(C(=O)NC(CC)CC)n(CCO)n3)c2)o1 [Example 16.0, 2-(3-(1-(2-Hydroxyethyl)-5-(Pentan-3-Ylcarbamoyl)-1H-1,2,4-Triazol-3-Yl)Phenyl)-N-(Pentan-3-Yl)Oxazole-5-Carboxamide]	0.13	177
C[C@H](NC(=O)c1cnc(-c2cccc(-c3nc(C(=O)N[C@@H](C)C4CC4)n(CCO)n3)c2)o1)C1CC1 [Example 16.1, N-((S)-1-Cyclopropylethyl)-2-(3-(5-(((S)-1-Cyclopropylethyl)Carbamoyl)-1-(2-Hydroxyethyl)-1H-1,2,4-Triazol-3-Yl)Phenyl)Oxazole-5-Carboxamide]	0.46	102
C[C@H](NC(=O)c1cnc(-c2cccc(-c3nc(C(=O)N[C@@H](C)C4CC4)n(CCCO)n3)c2)o1)C1CC1 [Example 16.2, N-((S)-1-Cyclopropylethyl)-2-(3-(5-(((S)-1-Cyclopropylethyl)Carbamoyl)-1-(3-Hydroxypropyl)-1H-1,2,4-Triazol-3-Yl)Phenyl)Oxazole-5-Carboxamide]	0.29	140
CCC(CC)NC(=O)c1cnc(-c2cccc(-c3cn(CC(O)C(F)(F)F)c(C(=O)N[C@@H](C)C4CC4)n3)c2)o1 (stereo partly drawn) [Example 17.0, 2-(3-(2-(((S)-1-Cyclopropylethyl)Carbamoyl)-1-(3,3,3-Trifluoro-2-Hydroxypropyl)-1H-Imidazol-4-Yl)Phenyl)-N-(Pentan-3-Yl)Oxazole-5-Carboxamide]	0.79	186
CCC(CC)NC(=O)c1cnc(-c2cccc(-c3ncc(C(=O)NC(CC)CC)o3)c2)o1 [Example 18.0, 2,2′-(1,3-Phenylene)Bis(N-(Pentan-3-Yl)Oxazole-5-Carboxamide)]	0.14	97
